Assay results reported in patent EP3722296B1, “DIHYDRONAPHTHYRIDINES AND RELATED COMPOUNDS USEFUL AS KINASE INHIBITORS FOR THE TREATMENT OF PROLIFERATIVE DISEASES” (Deciphera Pharmaceuticals, LLC, priority 2012, dated 2013).

Assays:
Format in all cases: cell-based
Phospho-KIT (Tyr719) [1] = assay: GIST430 KIT Western Blot; conditions: GIST430 cells, 4 hours, serum-free medium; read-out: pKIT suppression by western blot analysi GIST430
Summary of the method: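 GIST430 cells were compound-treated in serum-free Ham's F10, then lysed. Phospho-KIT (Tyr719) was measured by western blot with fluorescence-mode ECL, and blots were reprobed for total KIT; IC50 derived from concentration response.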

Phospho-KIT (Tyr719) [2] = biological target: T1, Phospho-KIT (Tyr719) (Homo sapiens, UniProt P10721, DEL560-578); assay: GIST T1 KIT Western Blot; conditions: GIST T1 cells, 4 hours, serum-free medium; read-out: pKIT suppression by western blot analysi GIST T1
T1 construct: endogenous in cells; host or cells: GIST T1
T1 sequence (P10721 with tags, fused parts or gaps DEL560-578): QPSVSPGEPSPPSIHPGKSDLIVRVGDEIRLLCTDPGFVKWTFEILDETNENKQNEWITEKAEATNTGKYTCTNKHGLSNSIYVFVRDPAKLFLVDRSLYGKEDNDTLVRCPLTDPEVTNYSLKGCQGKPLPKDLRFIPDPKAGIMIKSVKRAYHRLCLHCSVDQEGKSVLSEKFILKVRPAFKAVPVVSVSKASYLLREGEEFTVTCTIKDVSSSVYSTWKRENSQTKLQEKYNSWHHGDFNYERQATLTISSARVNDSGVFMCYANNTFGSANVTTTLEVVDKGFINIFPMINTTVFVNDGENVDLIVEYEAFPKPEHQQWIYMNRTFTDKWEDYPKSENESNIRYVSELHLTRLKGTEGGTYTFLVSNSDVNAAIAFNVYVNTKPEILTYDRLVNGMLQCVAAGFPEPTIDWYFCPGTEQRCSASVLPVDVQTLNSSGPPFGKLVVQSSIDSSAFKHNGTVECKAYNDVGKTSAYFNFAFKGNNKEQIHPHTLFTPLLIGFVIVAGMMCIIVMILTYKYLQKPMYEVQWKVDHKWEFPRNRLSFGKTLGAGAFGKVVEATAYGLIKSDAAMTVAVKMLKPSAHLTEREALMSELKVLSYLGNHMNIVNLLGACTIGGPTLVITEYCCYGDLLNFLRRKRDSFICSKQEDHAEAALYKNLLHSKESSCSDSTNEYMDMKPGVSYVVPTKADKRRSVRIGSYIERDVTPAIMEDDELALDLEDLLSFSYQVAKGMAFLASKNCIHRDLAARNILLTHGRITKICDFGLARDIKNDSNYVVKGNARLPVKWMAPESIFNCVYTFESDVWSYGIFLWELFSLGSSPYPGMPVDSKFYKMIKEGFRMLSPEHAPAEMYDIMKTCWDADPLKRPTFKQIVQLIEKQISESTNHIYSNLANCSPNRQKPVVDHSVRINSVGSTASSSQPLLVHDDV
Description: GIST48, GIST430, and GIST882 cells were obtained from J. Fletcher (Brigham and Women's Hospital, Boston, MA). GIST T1 cells were obtained from B. Rubin (Cleveland Clinic, Cleveland, OH) and Professor Takahiro Taguchi (Kochi Medical School, Nankoku, Kochi, Japan). […] GIST430 cells were grown in Ham's F10 medium supplemented with 15% characterized fetal bovine serum (Invitrogen, Carlsbad, CA), 30 mg/L bovine pituitary extract (BD Biosciences, San Jose, CA), 0.5% Mito+ serum extender (BD Biosciences, San Jose, CA), 1 unit/mL penicillin G, 1 µg/ml streptomycin, and 0.29 mg/mL L-glutamine at 37 °C, 5%CO2, 95% humidity. GIST T1 cells were grown in DMEM medium supplemented with 10% characterized fetal bovine serum (Invitrogen, Carlsbad, CA), 1 unit/mL penicillin G, 1 µg/ml streptomycin, and 0.29 mg/mL L-glutamine at 37 °C, 5% CO2, and 95% humidity. Cells were allowed to expand until reaching 70-95% confluence at which point they were subcultured or harvested for assay use.
One hundred twenty-five thousand cells were added per well in a 24-well tissue-culture treated plate. Cells were then incubated overnight at 37°C, 5% CO2, 95% humidity. Medium was aspirated, cells were washed with PBS, and serum-free DMEM medium was added. A serial dilution of test compound was added to plates containing cells and plates were incubated for 4 hours at 37°C, 5% CO2, 95% humidity. Cells were washed with PBS, then lysed. Cell lysates were separated by SDS-PAGE and transferred to PVDF. Phospho-KIT (Tyr719) was detected using an antibody from Cell Signaling Technology (Beverly, MA), ECL Plus detection reagent (GE Healthcare, Piscataway, NJ) and a Molecular Devices Storm 840 phosphorimager in fluorescence mode. Blots were stripped and probed for total KIT using an antibody from Santa Cruz Biotech (Santa Cruz, CA). IC50 values were calculated using Prism software (Graphpad, San Diego, CA).

Phospho-KIT (Tyr719) [3] = biological target: T2, Phospho-KIT (Tyr719) (Homo sapiens, UniProt P10721, K642E); assay: GIST882 KIT Western Blot; conditions: GIST882 cells, 4 hours, serum-free medium; read-out: pKIT suppression by western blot analysi GIST 882
T2 construct: endogenous in cells; host or cells: GIST882
T2 sequence (P10721 26-976 K642E): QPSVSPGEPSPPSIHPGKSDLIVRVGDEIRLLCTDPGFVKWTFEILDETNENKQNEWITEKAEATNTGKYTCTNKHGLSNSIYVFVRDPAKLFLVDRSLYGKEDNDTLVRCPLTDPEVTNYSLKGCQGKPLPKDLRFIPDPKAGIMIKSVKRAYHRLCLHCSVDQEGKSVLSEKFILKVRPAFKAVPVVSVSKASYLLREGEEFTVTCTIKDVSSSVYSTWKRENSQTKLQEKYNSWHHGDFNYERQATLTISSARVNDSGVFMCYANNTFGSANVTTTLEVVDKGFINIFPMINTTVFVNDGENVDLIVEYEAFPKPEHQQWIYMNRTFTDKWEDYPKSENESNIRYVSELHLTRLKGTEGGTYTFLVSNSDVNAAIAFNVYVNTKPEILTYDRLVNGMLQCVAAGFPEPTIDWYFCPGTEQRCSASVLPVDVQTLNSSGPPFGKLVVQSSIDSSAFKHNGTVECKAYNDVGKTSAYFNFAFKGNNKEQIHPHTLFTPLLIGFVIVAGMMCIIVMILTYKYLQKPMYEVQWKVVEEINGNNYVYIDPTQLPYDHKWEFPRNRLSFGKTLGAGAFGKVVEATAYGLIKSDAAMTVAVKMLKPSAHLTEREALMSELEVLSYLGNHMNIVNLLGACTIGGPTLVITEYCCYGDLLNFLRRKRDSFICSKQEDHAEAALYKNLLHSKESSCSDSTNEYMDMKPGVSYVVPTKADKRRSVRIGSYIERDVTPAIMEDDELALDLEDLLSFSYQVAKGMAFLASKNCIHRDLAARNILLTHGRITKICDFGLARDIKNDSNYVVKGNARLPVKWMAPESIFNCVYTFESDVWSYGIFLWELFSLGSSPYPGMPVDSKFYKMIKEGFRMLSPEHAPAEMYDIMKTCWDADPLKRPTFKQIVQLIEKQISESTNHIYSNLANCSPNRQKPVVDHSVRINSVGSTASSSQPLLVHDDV
Summary of the method: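 Phospho-KIT (Tyr719) was immunoblotted on PVDF and imaged in fluorescence mode after ECL Plus, with stripping and reprobing for total KIT. IC50 values were derived from the blot signals.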

GIST T1 cells = assay: GIST T1 Cell Proliferation Assay; conditions: Homo sapiens, GISTT1, 72 h, 68 hours + 4 hours resazurin

SMILES | IC50 (Phospho-KIT (Tyr719) [1]) [nM] | IC50 (Phospho-KIT (Tyr719) [2]) [nM] | IC50 (Phospho-KIT (Tyr719) [3]) [nM] | IC50 (GIST T1 cells) [nM]
CNc1cc2c(cn1)cc(-c1cc(NC(=O)Nc3ccccc3)c(F)cc1Cl)c(=O)n2C(C)C [Example 22, 1-(4-chloro-2-fluoro-5-(1-isopropyl-7-(methylamino)-2-oxo-1,2-dihydro-1,6-naphthyridin-3-yl)phenyl)-3-phenylurea] | 10 to 100 | < 10 | 10 to 100 | < 10
CCn1c(=O)c(-c2cc(NC(=O)Nc3ccccc3)c(F)cc2Cl)cc2cnc(NC(C)=O)cc21 [Example 54, 1-(5-(7-acetamido-1-ethyl-2-oxo-1,2-dihydro-1,6-naphthyridin-3-yl)-4-chloro-2-fluorophenyl)-3-phenylurea] | 10 to 100 | < 10 | 10 to 100 | < 10
CCn1c(=O)c(-c2cc(NC(=O)Nc3cccc(F)c3)c(F)cc2Br)cc2cnc(NC)cc21 [Example 50, 1-(4-bromo-5-(1-ethyl-7-(methylamino)-2-oxo-1,2-dihydro-1,6-naphthyridin-3-yl)-2-fluorophenyl)-3-(3-fluorophenyl)urea] | < 10 | < 10 | 10 to 100 | 10 to 100
CCn1c(=O)c(-c2cc(NC(=O)Nc3cccc4ccccc34)c(F)cc2Cl)cc2cnc(NC)cc21 [Example 6, 1-(4-chloro-5-(1-ethyl-7-(methylamino)-2-oxo-1,2-dihydro-1,6-naphthyridin-3-yl)-2-fluorophenyl)-3-(naphthalen-1-yl)urea] | < 10 | 10 to 100 | 10 to 100 | 10 to 100
CCn1c(=O)c(-c2cc(NC(=O)Nc3csc4ccccc34)c(F)cc2Cl)cc2cnc(NC)cc21 [Example 32, 1-(benzo[b]thiophen-3-yl)-3-(4-chloro-5-(1-ethyl-7-(methylamino)-2-oxo-1,2-dihydro-1,6-naphthyridin-3-yl)-2-fluorophenyl)urea] | < 10 | < 10 | 10 to 100 | < 10
CCn1c(=O)c(-c2cc(NC(=O)Nc3ccccc3)c(F)cc2Cl)cc2cnc(NC(=O)N(C)C)cc21 [Example 70, 3-(3-(2-chloro-4-fluoro-5-(3-phenylureido)phenyl)-1-ethyl-2-oxo-1,2-dihydro-1,6-naphthyridin-7-yl)-1,1-dimethylurea] | < 10 | < 10 | 10 to 100 | < 10
CCn1c(=O)c(-c2cc(NC(=O)Nc3cccc(F)c3)c(F)cc2Cl)cc2cnc(NC)cc21 [Example 24, 1-[4-chloro-5-(1-ethyl-7-methylamino-2-oxo-1,2-dihydro-[1,6]naphthyridin-3-yl)-2-fluoro-phenyl]-3-(3-fluoro-phenyl)-urea] | < 10 | < 10 | 10 to 100 | < 10
CCn1c(=O)c(-c2cc(NC(=O)Nc3cccc(F)c3)c(F)cc2C)cc2cnc(NC)cc21 [Example 44, 1-(5-(1-ethyl-7-(methylamino)-2-oxo-1,2-dihydro-1,6-naphthyridin-3-yl)-2-fluoro-4-methylphenyl)-3-(3-fluorophenyl)urea] | < 10 | < 10 | 10 to 100 | < 10
CCn1c(=O)c(-c2cc(NC(=O)Nc3cccc(F)c3)c(F)cc2Cl)cc2cnc(NCCOC)cc21 [Example 28, 1-(4-chloro-5-(1-ethyl-7-(2-methoxyethylamino)-2-oxo-1,2-dihydro-1,6-naphthyridin-3-yl)-2-fluorophenyl)-3-(3-fluorophenyl)urea] | 10 to 100 | < 10 | 10 to 100 | 10 to 100
CCn1c(=O)c(-c2cc(NC(=O)Nc3csc4ccccc34)c(F)cc2C)cc2cnc(NC)cc21 [Example 59, 1-(benzo[b]thiophen-3-yl)-3-(5-(1-ethyl-7-(methylamino)-2-oxo-1,2-dihydro-1,6-naphthyridin-3-yl)-2-fluoro-4-methylphenyl)urea] | 10 to 100 | < 10 | 10 to 100 | 10 to 100
